Laboratory results: patent US20220315558A1, “POLYMORPHS OF 1-(2-((((TRANS)-3-FLUORO-1-(3-FLUOROPYRIDIN-2-YL)CYCLOBUTYL)METHYL)AMINO)PYRIMIDIN-5-YL)-1H-PYRROLE-3-CARBOXAMIDE” (Cytokinetics, Inc., priority 2019, published 2022)

Experiments:
Type in all cases: physicochemical
[1] = XRPD analysis after heating at 150° C.
Description: Polymorphic Form II of 1-(2-((((trans)-3-fluoro-1-(3-fluoropyridin-2-yl)cyclobutyl)methyl)amino)pyrimidin-5-yl)-1H-pyrrole-3-carboxamide was analyzed by XRPD, DSC, TGA, and GVS.

[2] = Gravimetric Vapour Sorption (GVS) moisture sorption isotherm; conditions: over 0-90% RH range, 25° C.
Description: GVS data were collected using a SMS DVS Intrinsic moisture sorption analyser, controlled by DVS Intrinsic Control software v1.0.0.30. The sample temperature was maintained at 25° C. by the instrument controls. The humidity was controlled by mixing streams of dry and wet nitrogen, with a total flow rate of 200 ml/min The relative humidity was measured by a calibrated Rotronic probe (dynamic range of 1.0-100% RH), located near the sample. The weight change, (mass relaxation) of the sample as a function of % RH was constantly monitored by the microbalance (accuracy ±0.005 mg).
Typically 5-20 mg of sample was placed in a tared mesh stainless steel basket under ambient conditions. The sample was loaded and unloaded at 40% RH and 25° C. (typical room conditions). A moisture sorption isotherm was performed as outlined below (2 scans giving 1 complete cycle). The standard isotherm was performed at 25° C. at 10% RH intervals over a 0-90% RH range. Data analysis was undertaken in Microsoft Excel using DVS Analysis Suite v6.0.

[3] = Competitive slurry experiments between Form I and Form V; conditions: XRPD
Description: For competitive slurry experiments, a mixture of Form I (˜10 mg) and Form V (˜10 mg) were suspended in 20 volumes of ethanol or methanol. Parallel maturation experiments were set up at a constant temperature, in the range of 4° C. to 60° C. for 9-12 days, the resulting solids (rapidly isolated by solvent decantation) were analyzed by XRPD. A mechanical mixture of Form I and Form V in equivalent weight was also analyzed by XRPD for reference. For the control experiments, slurries of Form I or Form V were subjected to the same conditions as in the competitive slurry experiments.
In an attempt to determine a transition temperature for the polymorph pair, a further four competitive slurry experiments were performed at a higher temperature range of 65-75° C. Using sealed vials, Form I (˜10 mg) and Form V (˜10 mg) were suspended in 20 volumes of ethanol or methanol and maturation continued for 2 days.

solid form by XRPD after heating [1]	moisture uptake as determined by GVS [2]	relative stability versus Form I (competitive slurry) ([3]; ethanol, 4° C. to 60° C., 9-12 days)	relative stability versus Form I (competitive slurry) ([3]; ethanol, 65-75° C., 2 days, sealed vials)	relative stability versus Form I (competitive slurry) ([3]; methanol, 4° C. to 60° C., 9-12 days)	solid form obtained from Form I/Form V competitive slurry ([3]; methanol, 65° C., 2 days, sealed vials)	SMILES
converted to Form I	about 1.65%	–	–	–	–	NC(=O)c1ccn(-c2cnc(NC[C@]3(c4ncccc4F)C[C@H](F)C3)nc2)c1 [Form II, 1-(2-((((trans)-3-fluoro-1-(3-fluoropyridin-2-yl)cyclobutyl)methyl)amino)pyrimidin-5-yl)-1H-pyrrole-3-carboxamide]
–	less than 0.05%	more stable	more stable form	more stable	mixture of both forms	NC(=O)c1ccn(-c2cnc(NC[C@]3(c4ncccc4F)C[C@H](F)C3)nc2)c1 [Form V, 1-(2-((((trans)-3-fluoro-1-(3-fluoropyridin-2-yl)cyclobutyl)methyl)amino)pyrimidin-5-yl)-1H-pyrrole-3-carboxamide]
